Where two headings read alike, the source gives them in different places.

One assay concerns CH3/HeJ mice. The assay is described as follows: Mouse Tail Suspension Assay (Acute), TST. The format is in vivo. The conditions noted are these: Mus musculus, po, 7 min, p.o., 7-min session. The method, then:
In the tail suspension test (TST) for evaluating compounds for anti-depressant activity, mice are suspended by their tails to a metal or plastic rod using clip or scotch tape. The test is usually quite short, 5-7 min, and the amount of time the mice spend immobile is recorded either manually or with an automated device. Agents which have antidepressant activity, decrease the duration of immobility of mice in this test.
The basic apparatus for the tail suspension assay consisted of a yellow plastic chamber (91×45×10 cm) divided for four arenas 25, 20, 20 and 25 cm wide separated by yellow plastic walls 0.75 cm thick. Mice were suspended by their tails using a rubber clip (7 cm long) attached to the plastic rod that was placed on the top of a testing chamber half way through its deep dimension. Each experimental session was videotaped and analyzed for four animals in the real time by computer software (“Depression Scan” Clever Sys Inc.). The computer justification of immobility was calibrated with the use of animals dosed with lorazepam while justification of movement was calibrated with the high dose of desipramine treated animals. Control, vehicle treated animals and animals treated with Compound #8 were analyzed under the calibrated settings. The settings were adjusted separately for dark (CH3/HeJ and C57Bl/6J strains) and white mice (Balb/cJ and A/J strains). A yellow background was used for dark mice and a blue background was used to record movements of white mice.
The ability of a test compound to decrease the duration of immobility, or increase mobility was measured using the TST procedure described above. Acute treatment with clinically effective antidepressants and/or novel compounds that have potential antidepressant properties decrease the duration of immobility and at the same time increases mobility in the TST.
Data were analyzed using GraphPad Prism software (GraphPad Software, Inc. San Diego, Calif.). For the comparison of the effect of different doses for various drugs on immobility in the TST one-way analyses of variance (ANOVA) were used followed by Dunnett's multiple comparison test. […] The ED50 and Emax values were compared using two-way ANOVA and Bonferroni post-hoc test.
Positive controls included duloxetine (DLX), venlafaxine (VLX)and desipramine (DMI) which were dissolved in 0.5% methylcellulose and lorazepam (LOR) which was suspended in 0.5% of methylcellulose in water by sonication. All drugs and vehicles were administered orally (p.o.) by gavage in a volume of 10 mL/kg.
The mice were ordered 5 weeks old and at the beginning of experiment their weight was 20±5 g. Animals were housed in groups of four in plastic cages at an ambient temperature of 21° C. to 23° C. with an automated 12/12 hours light/dark cycle and access to water and a commercial rodent food ad libitum.
Each experiment consisted of seven treatment groups with four animals per group. A total of 28 animals per experiment were used. Every two consecutive experiments (1 & 2, 3 & 4, 5 & 6 and 7 & 8) were exact replicas of each other. […] One treatment group of four animals in each experiment was a vehicle treated group. In addition to the vehicle treated group, the effects of DMI at 6 mg/kg, 12 mg/kg, 30 mg/kg, 60 mg/kg and 120 mg/kg and LOR at 5 mg/kg were tested in experiments 1 and 2. […] In experiments 5 and 6 the effects of DLX at 6 mg/kg, 12 mg/kg, 30 mg/kg, 60 mg/kg, 120 mg/kg and LOR at 5 mg/kg were tested. […]

The subject of another assay is Male Sprague Dawley rats. Nature of the assay: Forced Swim Test (Acute), FST. The format is in vivo. The method, then: The Forced Swim test (FST) is a commonly used procedure to screen compounds for possible antidepressant properties. This test is also known as the behavioral despair test. Rodents placed in […] tanks filled with water present a wide variety of escape or immobility behaviors. Antidepressant drugs from different classes markedly increase escape behaviors and/or decrease latency or duration of immobility.
Venlafaxine and desipramine were dissolved in water. All drugs and their vehicles were administered orally (p.o.) by gavage in a volume of 5 mL/kg.
Male Sprague Dawley rats (140 to 160 g) from Charles River Laboratories Wilmington, Mass. were used. The animals went through a five-day quarantine period before being subjected to the experimental procedure.
Animals were housed in groups of four in plastic cages at an ambient temperature of 21° C. to 23° C. with an automated 12 hour light/dark cycle and access to water and commercial rodent food ad libitum. Animals were not handled more than for the routine bedding change prior to pre-test swim session.
Each experiment consisted of seven treatment groups with n=4 animals per group. A total of 28 animals per experiment were used. Two consecutive experiments (1 and 2, 3 and 4, and 5 and 6) were exact replicas of each other. […] One treatment group of n=4 animals in each experiment was a vehicle treated group. […] In experiments 5 and 6 the effects of venlafaxine and maprotyline at 12 mg/kg, 30 mg/kg, and 60 mg/kg were tested.
The basic apparatus consisted of a cylinder (46 cm tall×˜20 cm diameter) filled with water to 30 cm deep, at a temperature of 25±1° C. The automated version of the FST was used to perform the experiments. Plumbing for automatic filling and emptying water connected the four cylinders. Cylinders were placed in the dividing chambers 25 cm wide to separate animals visually. Each 5-minute experimental session was videotaped and analyzed in real time by computer software (Clever Systems, Inc.) for four animals at a time. The immobility, swimming, climbing and escape times were recorded by the software. The four activities are defined as follow. Immobility: the animal floats motionlessly or makes only those movements necessary to keep its head above water; Climb: the animal vigorously moves vertically while scratching the wall around the cylinder; Swim: the animal moves horizontally around in the cylinder more than necessary to keep its head above water; and Escape: sum of all vigorous active movements.
The ability of a test compound to decrease the duration or frequency of immobility, or changes in swimming, climbing and escape times, was measured using the FST procedure described above. […] The analysis of the results in the studies described was focused on the immobility time during 5-minute test session.
There were two swim sessions in each experiment. First, a pre-test swim session for 15 minutes was performed. Following 48 hours later was a test session of 5-minute duration. Upon completion of a swim session, each animal was placed under a heat lamp in a cage with soft bedding for approximately 15 minutes to prevent hypothermia.
Animals were pre-treated with a vehicle or test compound after completing the pre-test swim session, then 24 hours later and then shortly prior to the 5-minute test session; i.e., three injections were given to each animal between the two swim sessions that occurred on 3 consecutive days.
Data were analyzed using GraphPad Prism software (GraphPad Software, Inc. San Diego, Calif.). For the comparison of the effect of different doses for various drugs on immobility in the FST one-way ANOVA was used followed by Dunnett's multiple comparison test. […] The ED50 and Emax values were statistically compared using two-tail t-test.

The test system of a further assay is Male Wistar rats. The assay is described as follows: Chronic Mild Stress Model (Chronic), sucrose consumption. The format is in vivo. As to conditions: stressed animals, once daily i.p. An excerpt:
In the chronic mild stress (CMS) model rats subjected to a variety of mild stressors for a prolonged period of time show, among other behavioural, biochemical and physiological impairments, a substantial decrease in their responsiveness to rewarding stimuli. This deficit is usually monitored by a decrease in the consumption of the 1% sucrose solution, but can also be seen in other tests, such as place preference conditioning or intracranial self-stimulation. Since the subsensitivity to reward appears to reflect anhedonia (inability to experience pleasure), which is a core symptom of major depressive disorders, the CMS procedure may serve as a suitable research tool in studies into the mechanisms of antidepressant action.
Male Wistar rats were brought into the laboratory two months before the start of the experiment. Except as described below, the animals were singly housed with food and water freely available, and were maintained on a 12-h light/dark and in a constant temperature (22±2° C.) and humidity (50±5%) conditions.
The animals were first trained to consume a 1% sucrose solution; training consisted of eight 1 h baseline tests in which sucrose was presented, in the home cage, following 14 h food and water deprivation; the sucrose intake was measured by weighing pre-weighed bottles containing the sucrose solution, at the end of the test. Subsequently, sucrose consumption was monitored, under similar conditions, at weekly intervals throughout the whole experiment.
On the basis of their sucrose intakes in the final baseline test, the animals were divided into two matched groups. One group of animals was subjected to the chronic mild stress procedure for a period of 7 consecutive weeks. Each week of stress regime consisted of: two periods of food or water deprivation, two periods of 45 degree cage tilt, two periods of intermittent illumination (lights on and off every 2 h), two periods of soiled cage (250 ml water in sawdust bedding), one period of paired housing, two periods of low intensity stroboscopic illumination (150 flashes/min), and three periods of no stress. All stressors were 10-14 h of duration and were applied individually and continuously, day and night. Control animals were housed in separate rooms and had no contact with the stressed animals. They were deprived of food and water for the 14 h preceding each sucrose test, but otherwise food and water were freely available in the home cage.
The drugs were administered at approx. 10.00 and the weekly sucrose tests were carried out 24 h following the last drug injections. […]
All results obtained in this study were analyzed by multiple analyses of variance with three between-subjects factors (stress/control, drug treatments and successive sucrose tests). […]

Assay [1] relates to stressed and non-stressed animals. The assay is described as follows: Resident/Intruder Assay (Chronic Social Stress Assay). The format is in vivo. As to conditions: Forced Swim Test, 10 mg/kg p.o. An excerpt:
The behavioral resident/intruder assay is used to screen compounds for anti-depressant-like activity.

The next assay deals with submissive rats. Nature of the assay: Dominant-Submissive Relations (DSR) assay: Reduction of Submissive Behavior Model (RSBM) of depression. The format is in vivo, Male Sprague Dawley rats. As to conditions: 10.0 mg/kg i.p. The method, then: The DSR assay is divided into two models: Reduction of Dominant Behavior Model (RDBM) of mania and Reduction of Submissive Behavior Model (RSBM) of depression. The RDBM, wherein the dominant animals are treated with test compound, is predictive of the ability of the test compound to treat mania. The RSBM, wherein the submissive animals are treated with test compound, is predictive of the ability of the test compound to treat depression.
Male Sprague Dawley rats (140 to 160 g) from Charles River Laboratories Wilmington, Mass. were used in this assay. Shipments of rats were received at two-week intervals. Each shipment went through five-day quarantine, one-week acclimation period, and one-week selection process, followed by five-weeks of drug or vehicle treatment to those pairs selected.
Rats were housed four per cage. Access to food was restricted to one hour per day after testing on Monday through Thursday. After testing on Friday, rats had free access to food until being fasted again on Sunday. At no time were the rats deprived of water. The food deprivation periods used had little effect on weight gain as the average weight of rats was about 300 g at the end of the study. At the conclusion of experiment rats were sacrificed by decapitation, the trunk blood and brains were collected for in vitro experiments and drug concentration measurements.
The basic testing apparatus consisted of two chambers connected with a tunnel only large enough to allow one rat to pass through at a time. On the floor, at the mid-point of the tunnel was a container of sweetened milk. This basic apparatus was replicated, so that a total of four pairs of rats can be video tracked simultaneously. The camera can distinguish rats marked by different colors. Thus, the rats' heads were colored for the purpose of video tracking, red in one cage and yellow in the other cage. Only one animal at a time can have comfortable access to the feeder, but both animals can drink milk during the five-minute daily session. During the five-minute daily sessions, time spent in the feeder zone by each rat was recorded by the video tracking software and saved into a text file.
The test began with a random assignment of rats into pairs. Each member of a pair was placed in an opposite chamber of the testing apparatus. The time spent in the feeder zone by each animal was recorded. During the first week (five days) of testing the animals habituate to the new environment. Dominance was assigned to the animal with the highest score during the second week of testing if three criteria were achieved. First, there must have been a significant difference (two-tailed t-test, P<0.05) between the average daily drinking scores of both animals. Second, the dominant animal score must have been at least 25% greater than the submissive animal's score. Finally, there must have been no “reversals” during the pair selection week where the putative submissive rat out-scored its dominant partner on isolated occasions. Ideally there were minimal reversals during the acclimation week as well. About twenty-five to thirty-three percent of the initial animal pairs achieved these criteria and only these pairs were continued in the study.
Significant differences between time spent on the feeder by dominant and submissive rats were determined by ANOVA using GraphPad Prism software (GraphPad Software, Inc. San Diego, Calif.) followed by a two-tailed t-test (P<0.05). Comparisons were made between treatment groups using normalized dominance level values in paired animals. The dominance level is a value that measures social relation between paired subjects. Dominance level (DL)=FTD−FTS where FTD is the feeder time of dominant rats and FTS is the feeder time of submissive rats. The normalization was conducted according to the formula: Dominance Level (week n in %)=(Dominance Level (week n))/(Dominance Level (week 2) […]

What is called ED50 is the dose at which the effect has come halfway, by size or by number of responders. As to `CNCCCN1c2ccccc2CCc2ccccc21` [DMI, desipramine, reference compound], the ED50 is 27.4 mg/kg in the assay with CH3/HeJ mice (read-out: Immobility ED50); 24.4 mg/kg with CH3/HeJ mice (read-out: Mobility ED50); 2 ± 0.1 mg/kg in the assay on Male Sprague Dawley rats (Rattus norvegicus, po, 5 min, p.o., three administrations, 5-minute test session, read-out: ED50 (immobility)). In addition, in the assay with Male Sprague Dawley rats (p.o., immobility), the “Emax (immobility)” value amounted to 50.0 ± 8.4 s.

As for `CN(C)CCCN1c2ccccc2CCc2ccccc21` [Imipramine, imipramine, reference compound], the “treatment time until increase in sucrose intake reached statistical significance vs Week 0” value with Male Wistar rats is “four weeks”.

`O=C1Nc2ccc(Cl)cc2C(c2ccccc2Cl)=NC1O` (stereo not shown) [Lorazepam, lorazepam, reference compound]: the “effect on immobility time” value in the assay on Male Sprague Dawley rats (1 mg/kg p.o., negative control) is listed as “no significant effect”.

Consider `COc1ccc(C(CN(C)C)C2(O)CCCCC2)cc1` (stereo not shown) [Venlafaxine, venlafaxine], for which the “treatment time until increase in sucrose intake reached statistical significance vs Week 0” value in the assay with Male Wistar rats is listed as “four weeks”. Besides, the entries for the “Immobility during 5 min: Week 5 Mean ± SD” value in assay [1] (non-stressed) and in assay [1] (stressed) were 181.8 ± 27.6 and 190.4 ± 36.8, respectively.

For the compound `CNCCC(Oc1ccc(C(F)(F)F)cc1)c1ccccc1` (stereo not shown) [fluoxetine, reference compound], in the assay with submissive rats, the “loss of significant difference between dominant and submissive rats” value is given as “lost after third week of treatment”.

These data come from patent US20070155827A1, “USE OF BENZO-FUSED HETEROCYCLE SULFAMIDE DERIVATIVES FOR THE TREATMENT OF DEPRESSION” (priority 2005, published 2007).
